Like-named read-outs stand apart in the source and are kept apart here.
Columns and labels:
cGMP PDE5 = target: T1, cGMP PDE5 (Homo sapiens, UniProt O76074); experiment: In vitro cGMP PDE5 inhibitory activity (IC50); format: biochemical
T1 construct: The required PDE enzymes were isolated from a variety of sources, including human corpus cavernosum, human platelets; from tissue; host or cells: human corpus cavernosum tissue or human platelets
Description: The compounds of the present invention are potent and selective cGMP PDE5 inhibitors. In vitro PDE inhibitory activities against cyclic guanosine 3′,5′-monophosphate (cGMP) and cyclic adenosine 3′,5′-monophosphate (cAMP) phosphodiesterases were determined by measurement of their IC50 values (the concentration of compound required for 50% inhibition of enzyme activity).
The required PDE enzymes were isolated from a variety of sources, including human corpus cavernosum, human platelets, human cardiac ventricle, human skeletal muscle and human and canine retina, essentially by the method of W. J. Thompson and M. M. Appleman (Biochem., 1971, 10, 311). In particular, the cGMP-specific PDE (PDE5) and the cGMP-inhibited cAMP PDE (PDE3) were obtained from human corpus cavernosum tissue or human platelets; the cGMP-stimulated PDE (PDE2) was obtained from human corpus cavernosum or human platelets; the calcium/calmodulin (Ca/CAM)-dependent PDE (PDE1) from human cardiac ventricle; the cAMP-specific PDE (PDE4) from recombinant clone or human skeletal muscle; and the photoreceptor PDE (PDE6) from canine or human retina. Phosphodiesterases 7-11 were generated from full length human recombinant clones transfected into SF9 cells.
Assays were performed either using a modification of the “batch” method of W. J. Thompson et al. (Biochem., 1979, 18, 5228) or using a scintillation proximity assay for the direct detection of AMP/GMP using a modification of the protocol described by Amersham pic under product code TRKQ7090/7100. In summary, the effect of PDE inhibitors was investigated by assaying a fixed amount of enzyme in the presence of varying inhibitor concentrations and low substrate, (cGMP or cAMP in a 3:1 ratio unlabelled to [^3H]-labeled at a conc ˜½ Km) such that IC50 ≅Ki. The final assay volume was made up to 102 μl with assay buffer [20 mM Tris-HCl pH 7.4, 5 mM MgCl2, 1 mg/ml bovine serum albumin]. Reactions were initiated with enzyme, incubated for 30-60 min at 30° C. to give <30% substrate turnover and terminated with 50 μl yttrium silicate SPA beads (containing 3 mM of the respective unlabelled cyclic nucleotide for PDEs 3, 9 and 11). Plates were resealed and shaken for 20 min, after which the beads were allowed to settle for 30 min in the dark and then counted on a TopCount plate reader (Packard, Meriden, Conn.). Radioactivity units were converted to % activity of an uninhibited control (100%), plotted against inhibitor concentration and inhibitor IC50 values obtained using the ‘Fit Curve’ Microsoft Excel extension or inhouse equivalent.

[1] = In vitro metabolism: human liver microsome (HLM) half-life; format: in vitro ADME; conditions: human liver microsomes, pH 7.4, human liver microsomes
Description: In vitro metabolism experiments were carried out in the hepatic microsomal fractions from man. Transplant-quality human liver tissue was obtained from the International Institute for the Advancement of Medicine (Exton, Pa., USA). Microsomes were prepared according to the method described in Biochemical Pharmacology, […], 48, 2147-2156 and stored at −80° C. The concentrations of protein and cytochrome P450 were determined by standard methods described in Journal of Biological Chemistry, 1951, 193, 265-275 and Journal of Biological Chemistry, 1964, 239, 2370-2378.
Microsomal incubations (1.5 ml) were prepared containing 0.5 μM cytochrome P450, 200 mM phosphate buffer (pH 7.4), 0.1 M MgCl2, 0.1 M isocitric acid, 1 unit/ml isocitrate dehydrogenase and 20 mM β-NADP. Compounds under study were added after a 5 min preincubation at 37° C. to give an initial substrate concentration of 1 μM. The mixture was incubated at 37° C. and samples (100 μl) were removed for analysis for up to 60 min. Metabolism in samples was terminated by the addition of NaOH (0.1 M) containing an internal standard (chosen to have similar physicochemical properties to compounds under study), followed by extraction into ethyl acetate (2 ml). The extracts were evaporated to dryness and analysed by LC-MS/MS (Hewlett Packard HP1100 binary pump, Hypersil HS100 C18, 5 cm by 4.6 mm internal diameter, 5 μm column using a mobile phase of 2 mM ammonium acetate in 90:10 methanol/water, aqueous portion adjusted to pH 4 with glacial acetic acid, and a flowrate of 1 ml/min). The mass spectrometer was a Sciex API 2000 with TurbolonSpray interface using a positive ion multiple reaction monitoring (MRM) detection mode. Nitrogen was used as curtain, nebuliser, TurbolonSpray and collision gases, and the TurbolonSpray temperature was 100° C. Typical voltages were as follows: IS=5.2 kV; RNG=380 V; Q0=−10 V; IQ1=−11 V; ST=−15;RO1=−11 V; MU=gain adjusted as per Sciex user manual. Collision energy was 55 eV for high MRM, OR=65 V. Dwell time was 200 msec with a 50 msec pause. Data was acquired using MSExpress v 1.1 and processed using Macquan 1.5 (PE Sciex)). Disappearance rate constants (k) in human microsomal preparations were determined by linear regression of the log ratio (compound under study/internal standard) versus time. The in vitro human microsomal half-lives were determined according to the equation […]=In 2/k.

[2] = bounds for groups of Examples, read-out: IC50 values for the PDE5 enzyme
[3] = in vitro cGMP PDE5 inhibitory activity, Table 1, read-out: IC50
[4] = bound stated, read-out: HLM half-lifes
[5] = initial substrate concentration 1 μM, 37° C., Table 2, read-out: HLM t1/2

Row | Compound | half-life at 1 μM [1, 5] [min] | IC50 (cGMP PDE5; [2]) [nM] | IC50 (cGMP PDE5; [3]) [nM] | half-life at 1 μM [1, 4] [min] | melting point [°C]
1 | CCCCOc1ccc(S(C)(=O)=O)cc1-c1nc2c(CC)n(CCOC)nc2c(=O)[nH]1 [Example 2, 5-[2-Butoxy-5-(methylsulfonyl)phenyl]-3-ethyl-2-(2-methoxyethyl)-2,6-dihydro-7H-pyrazolo[4,3-d]pyrimidin-7-one] | – | < 10 | 6.5 | ≥ 30 | 174 to 176
2 | CCc1c2nc(-c3cc(S(C)(=O)=O)ccc3OCC(C)C)[nH]c(=O)c2nn1Cc1nccn1C [Example 9, 3-Ethyl-5-[2-isobutoxy-5-(methylsulfonyl)phenyl]-2-[(1-methyl-1H-imidazol-2-yl)methyl]-2,6-dihydro-7H-pyrazolo[4,3-d]pyrimidin-7-one] | – | < 10 | 3.95 | ≥ 30 | 253 to 254
3 | CCCOc1ccc(S(C)(=O)=O)cc1-c1nc2c(CC)nn(Cc3ccccn3)c2c(=O)[nH]1 [Example 11, 3-Ethyl-5-[5-(methylsulfonyl)-2-propoxyphenyl]-1-(2-pyridinylmethyl)-1,6-dihydro-7H-pyrazolo[4,3-d]pyrimidin-7-one] | – | < 10 | 1.4 | ≥ 30 | –
4 | CCc1c2nc(-c3cc(S(C)(=O)=O)ccc3OCC(C)C)[nH]c(=O)c2nn1C[C@H]1CCCN1C [Example 14, 3-Ethyl-5-[2-isobutoxy-5-(methylsulfonyl)phenyl]-2-{[(2R)-1-methylpyrrolidinyl]methyl}-2,6-dihydro-7H-pyrazolo[4,3-d]pyrimidin-7-one] | – | < 10 | 8.3 | ≥ 30 | 178 to 180
5 | CCCOc1ccc(S(C)(=O)=O)cc1-c1nc2c(CC)nn(C[C@@H]3CCCN3C)c2c(=O)[nH]1 [Example 18, 3-Ethyl-1-{[(2S)-1-methylpyrrolidinyl]methyl}-5-[5-(methylsulfonyl)-2-propoxyphenyl]-1,6-dihydro-7H-pyrazolo[4,3-d]pyrimidin-7-one] | – | < 10 | 5.4 | ≥ 30 | 211 to 215
6 | CCCCOc1ccc(S(C)(=O)=O)cc1-c1nc2c(CC)n(C3CN(C(C)C)C3)nc2c(=O)[nH]1 [Example 19, 5-[2-Butoxy-5-(methylsulfonyl)phenyl]-3-ethyl-2-(1-isopropyl-3-azetidinyl)-2,6-dihydro-7H-pyrazolo[4,3-d]pyrimidin-7-one] | – | < 10 | 6.6 | ≥ 30 | 209 to 213

More lines, main results first:

Row | half-life at 1 μM [1, 5] [min] | Compound | IC50 (cGMP PDE5; [2]) [nM] | IC50 (cGMP PDE5; [3]) [nM] | half-life at 1 μM [1, 4] [min] | melting point [°C]
7 | 67 | CCCc1nn(C)c2c(=O)[nH]c(-c3cc(S(C)(=O)=O)ccc3OCC)nc12 [Example 1, 5-[2-Ethoxy-5-(methylsulfonyl)phenyl]-1-methyl-3-propyl-1,6-dihydro-7H-pyrazolo[4,3-d]pyrimidin-7-one] | < 10 | 5.6 | ≥ 30 | 235 to 236
8 | > 120 | CCCOc1ccc(S(C)(=O)=O)cc1-c1nc2c(CC)n(CC3CC3)nc2c(=O)[nH]1 [Example 12, 2-(Cyclopropylmethyl)-3-ethyl-5-[5-(methylsulfonyl)-2-propoxyphenyl]-2,6-dihydro-7H-pyrazolo[4,3-d]pyrimidin-7-one] | < 10 | 1 | ≥ 30 | 233 to 234

Source: patent publication US6770645B2, “Pharmaceutically active compounds” (Pfizer Inc., priority 2001, dated 2004)
